Source: article PMC4552634, “A New Set of Chemical Starting Points with Plasmodium falciparum Transmission-Blocking Potential for Antimalarial Drug Discovery” (PLoS ONE, 2015)
Like-named read-outs stand apart in the source and are kept apart here.

Assays:
[1] = tested on: P. falciparum asexual stages; details: TCAMS data, cited from earlier work
[2] = tested on: luciferase reaction (BacTiter-Glo); assay: Interference assay (inhibition of the BacTiter-Glo luciferase reaction); assay type: biochemical; parameters: concentration or dose not given beside the values; details: ATP interference assay
Procedure: To discard possible false-positive results, we performed an interference assay in parallel. […] […]. The ATP solution was made by dissolving ATP powder (ATP standard from the ATPlite 1 step assay kit, reference 6016731, Perkin Elmer) in culture medium. The positive control used was the Luciferase Inhibitor I Calbiochem (Merck, 119113) at 100 μM.

[3] = Cytotoxicity in HepG2 cells (intracellular ATP, ATPlite, 48 h); assay type: cell-based, human; details: human, HepG2 cells
[4] = tested on: P. falciparum stage V gametocytes; assay: Gametocytocidal ATP bioluminescence assay (single point 5 μM and 1 μM, dose-response); assay type: cell-based, Plasmodium falciparum; details: for Ratio IC50 HepG2/IC50 P. falciparum: IC50 HepG2 divided by IC50 P. falciparum gametocytes
HepG2 cells = assay: Cytotoxicity in HepG2 cells (intracellular ATP, ATPlite, 48 h); assay type: cell-based, human; details: HepG2 cells; IC50 per ratio column head; unit inferred
[5] = tested on: P. falciparum stage V gametocytes; assay: microbe, parasite or virus in culture; parameters: BacTiter-Glo ATP luminescence viability of purified stage V gametocytes in 384-well plates, per cent inhibition versus DMSO; details: Plasmodium falciparum, 48 h, read-out: % Inhibition
[6] = asexual stages, read-out: IC50 asexual
[7] = IC50 per ratio column head, unit inferred, read-out: Cytotoxicity in HepG2
[8] = Plasmodium falciparum, P. falciparum gametocytes, average, read-out: IC50 Pf Gametocytes average, IC50 (µM) average
[9] = sexual stages (gametocytes), dose-response, read-out: IC50 sexual
[10] = P. falciparum asexual stages, read-out: IC50 (µM) Pf asexual stages
[11] = Plasmodium falciparum, sexual stages (gametocytes), dose-response, read-out: IC50 sexual
[12] = P. falciparum gametocytes, average, read-out: IC50 Pf Gametocytes average, IC50 (µM) average

| SMILES | % Control luminiscence [2] | IC50 [1, 6] | IC50 at 48 h [3, 7] | Ratio IC50 HepG2/IC50 P. falciparum [4] | IC50 [4, 8] | IC50 [4, 9] | IC50 ([3]; IC50 per ratio column head, unit inferred) | IC50 ([4]; Plasmodium falciparum, read-out: IC50 Pf Gametocytes average, IC50 (µM) average) | IC50 [1, 10] | IC50 at 48 h ([3]; HepG2, 48 h exposure, intracellular ATP, read-out: IC50 (μM) Cytotoxicity HepG2) | IC50 [4, 11] | IC50 (HepG2 cells) | IC50 [4, 12] | inhibition at 5 µM [5] |
| --- | --- | --- | --- | --- | --- | --- | --- | --- | --- | --- | --- | --- | --- | --- |
| COc1ccc(C[C@H](N)C(=O)N[C@H]2[C@@H](O)[C@H](n3cnc4c(N(C)C)ncnc43)O[C@@H]2CO)cc1 [TCMDC-123493] | 100% | 0.174 µM | 2.95 µM | 5 | 0.56 µM | 0.563 µM | – | – | – | – | – | – | – | – |
| [O-][s+]1c(Cl)c(-c2ccc(Cl)cc2)c2ccc(Cl)cc21 (stereo not shown) [TCMDC-124011] | 100% | 0.993 µM | 12.8 µM | – | 0.02 µM | – | – | – | – | – | – | – | – | – |
| Cl.c1ccc2c(NCCCCCCNc3c4ccccc4nc4ccccc34)c3ccccc3nc2c1 [TCMDC-124285] | 100% | 0.753 µM | – | 28 | – | 0.247 µM | 7000 nM | 0.25 µM | – | – | – | – | – | – |
| CCOc1ccc(-c2nonc2NC(=O)c2cccc(Cl)c2)cc1OCC [TCMDC-125200] | 100% | 0.147 µM | > 25 µM | – | 0.84 µM | – | – | – | 0.15 µM | – | – | – | – | – |
| CC[C@H]1CN2CCc3cc(OC)c(OC)cc3[C@@H]2C[C@@H]1C[C@H]1NCCc2cc(OC)c(OC)cc21 [TCMDC-125531] | 95% | 0.214 µM | 21 µM | – | 0.35 µM | – | – | – | 0.21 µM | 21 µM | 0.347 µM | – | – | – |
| Cc1cccnc1Nc1nc(-c2ccccn2)cs1 [TCMDC-125846] | 100% | 0.687 µM | 3.02 µM | 30 | 0.1 µM | – | – | – | – | – | – | – | – | – |
| S=C(NN=Cc1ccccn1)Nc1ccc2c(c1)OCCO2 [TCMDC-132009] | 100% | 1.05 µM | 3.28 µM | 4 | 0.83 µM | – | – | – | – | – | – | – | – | – |
| COc1cc(-c2cc(-c3ccc(S(C)(=O)=O)cc3)cnc2N)ccc1O [TCMDC-133343] | 100% | 0.101 µM | > 25 µM | – | 1.24 µM | – | – | – | 0.1 µM | – | 1.24 µM | – | – | – |
| O=C(NCCCCN1CCC(c2ccc3c(c2OCCO)CCCC3)CC1)c1ccc2oc(-c3ccc(C(F)(F)F)cc3)cc2c1 [TCMDC-138771] | 97% | 0.34 µM | – | 10 | – | – | – | – | – | – | – | 6590 nM | 0.63 µM | – |
| CCCCCCCN1CC[C@@H](CCCc2ccnc3ccc(OC)cc23)[C@@H](CCN)C1 [TCMDC-139278] | 100% | 0.748 µM | – | 11 | – | 0.267 µM | – | – | – | – | – | 2980 nM | 0.27 µM | – |
| O=C(Nc1ccc(Oc2ccccc2)cc1)N(CCN1CCCC1)Cc1ccc(-c2ccc(CN3CCNCC3)cc2)cc1 [TCMDC-139652] | 93% | 0.892 µM | – | 7 | – | 1.01 µM | – | – | – | – | – | 7080 nM | 1.02 µM | – |
| CC(Cc1ccc(CNC(=O)c2ccc(CC(C)NCCc3cccc(Cl)c3)cc2)cc1)NCCc1cccc(Cl)c1 (stereo not shown) [TCMDC-139659] | 98% | 0.696 µM | – | 5.53 | – | – | – | – | – | – | – | 3150 nM | 0.57 µM | – |
| CC(Cc1ccc(C(=O)Nc2ccc(CC(C)NCCc3cccc(Cl)c3)cc2)cc1)NCCc1ccc(C(F)(F)F)cc1 (stereo not shown) [TCMDC-139790] | 100% | 0.57 µM | – | 11 | – | 0.307 µM | – | – | – | – | – | 3300 nM | 0.31 µM | – |
| CC(CCCCCC(=O)Nc1ccc(CC(C)NCCc2cccc(Cl)c2)cc1)NCCc1cccc(Cl)c1 (stereo not shown) [TCMDC-139800] | 100% | 0.948 µM | – | 7.38 | – | 0.433 µM | – | – | – | – | – | 3200 nM | 0.43 µM | – |
| CCCCCCCN1CC[C@@H](CCCc2ccnc3ccc(OCCN4CCNCC4)cc23)[C@@H](CC)C1 [TCMDC-139817] | 94% | 0.771 µM | – | 12 | – | 0.567 µM | – | – | – | – | – | 6750 nM | 0.57 µM | – |
| O=C(/C=C/c1ccc(Cl)c(Cl)c1)N1CCC(CCN2CCC(c3c[nH]c4cnccc34)CC2)CC1 [TCMDC-140136] | 100% | 0.119 µM | – | 36 | – | – | – | – | – | – | – | 7210 nM | 0.2 µM | – |
| Cc1cccc2[nH]cc(C3CCN(CC4CCC(NC(=O)/C=C/c5ccc(Cl)c(Cl)c5)CC4)CC3)c12 (stereo not shown) [TCMDC-140137] | 100% | 0.163 µM | – | 2 | – | 1.45 µM | – | – | – | – | – | 2950 nM | 1.45 µM | – |
| CC(C)CC(=O)N(Cc1ccc(-c2ccc(CNC3Cc4ccccc4C3)cc2)cc1)C1CCNCC1 [TCMDC-141449] | 100% | 1.17 µM | – | 10 | – | 0.633 µM | – | – | – | – | – | 6200 nM | 0.63 µM | – |
| O=C(COc1ccccc1)N(Cc1ccc(-c2ccc(CNC3Cc4ccccc4C3)cc2)cc1)C1CCNCC1 [TCMDC-141450] | 100% | 1.01 µM | – | 8 | – | 0.987 µM | – | – | – | – | – | 7800 nM | 0.99 µM | – |
| CCN(CC)CCN(Cc1ccc(-c2ccc(C(F)(F)F)cc2)cc1)C(=O)c1ccc(-c2ccc(NC(=O)OC)cc2C)cc1 [TCMDC-141558] | 100% | 0.929 µM | – | 1.46 | – | 3.71 µM | – | – | – | – | – | 5400 nM | 3.71 µM | – |
| Cc1cc(F)ccc1-c1nc(NCC(O)CNCCc2ccccc2)nc2c1ccc(=O)n2-c1c(F)cccc1F (stereo not shown) [TCMDC-141784] | 100% | 0.539 µM | – | 37 | – | – | – | – | – | – | – | 8470 nM | 0.23 µM | – |
| COc1ccc2c(NN=Cc3ccc(OC)c4ccccc34)cc(C)nc2c1 [TCMDC-142218] | 97% | 0.599 µM | – | 10 | – | 0.773 µM | – | – | – | – | – | 7860 nM | 0.77 µM | 97.5% |

Second part, led by results:

| % Control luminiscence [2] | SMILES | IC50 [1, 6] | IC50 at 48 h [3, 7] | Ratio IC50 HepG2/IC50 P. falciparum [4] | IC50 [4, 8] | IC50 [4, 9] | IC50 ([3]; IC50 per ratio column head, unit inferred) | IC50 ([4]; Plasmodium falciparum, read-out: IC50 Pf Gametocytes average, IC50 (µM) average) | IC50 [1, 10] | IC50 at 48 h ([3]; HepG2, 48 h exposure, intracellular ATP, read-out: IC50 (μM) Cytotoxicity HepG2) | IC50 [4, 11] | IC50 (HepG2 cells) | IC50 [4, 12] | inhibition at 5 µM [5] |
| --- | --- | --- | --- | --- | --- | --- | --- | --- | --- | --- | --- | --- | --- | --- |
| 100% | Cc1cccc2nc(-c3cccc(-c4cccc(CNCCN5CCNCC5)c4)c3)[nH]c12 [TCMDC-132873] | 0.97 µM | 7.76 µM | 16 | 0.5 µM | 0.497 µM | – | – | – | – | – | – | – | – |
| 100% | CC(C)CNCc1cccc(-c2ccc(CN(CCCN3CCN(C)CC3)C(=O)/C=C/c3ccccc3)cc2)c1 [TCMDC-140545] | 0.857 µM | – | 11 | – | – | – | – | – | – | – | 6650 nM | 0.63 µM | – |
| 100% | CC(C)CNCc1ccc(-c2ccc(CN(CCCN3CCN(C)CC3)C(=O)/C=C/c3ccccc3)cc2)cc1 [TCMDC-140546] | 0.917 µM | – | 7 | – | 1 µM | – | – | – | – | – | 6990 nM | 1 µM | – |
| 100% | CC(C)CNCc1ccc(-c2cccc(CN(CCN(C)C)C(=O)CCC3CCCC3)c2)cc1 [TCMDC-140553] | 0.809 µM | – | 10 | – | – | – | – | – | – | – | 5500 nM | 0.54 µM | – |
| 100% | CN1CCN(CCCN(Cc2cccc(-c3cccc(CNC4CCCC4)c3)c2)C(=O)CCC2CCCC2)CC1 [TCMDC-140555] | 0.675 µM | – | 9 | – | 0.807 µM | – | – | – | – | – | 7500 nM | 0.81 µM | – |
| 100% | CC(C)CNCc1ccc(-c2ccc(CN(CCCN3CCN(C)CC3)C(=O)CCC3CCCC3)cc2)cc1 [TCMDC-140559] | 1.05 µM | – | 10 | – | – | – | – | – | – | – | 5390 nM | 0.54 µM | – |
| 100% | CN1CCN(CCCN(Cc2ccc(-c3ccc(CNC4CCCC4)cc3)cc2)C(=O)CCC2CCCC2)CC1 [TCMDC-140560] | 0.886 µM | – | 11 | – | 0.535 µM | – | – | – | – | – | 6000 nM | 0.53 µM | – |
| 96% | CC(C)CNCc1cccc(-c2cccc(CN(CCCN3CCN(C)CC3)C(=O)NC3CCCCC3)c2)c1 [TCMDC-140633] | 0.761 µM | – | 9 | – | 1.78 µM | – | – | – | – | – | 16800 nM | 1.78 µM | – |
| 95% | CN1CCC(C(=O)N(Cc2ccc(-c3ccc(CNCCc4ccccc4)cn3)cc2)C2CCN(Cc3ccccc3)CC2)CC1 [TCMDC-141552] | 0.787 µM | – | 10 | – | 0.897 µM | – | – | – | – | – | 9270 nM | 0.9 µM | – |
| 100% | O=C(Nc1cccc(Oc2ccccc2)c1)N[C@H]1CCN(Cc2ccc(OCCCN3CCCCC3)cc2)C1 [TCMDC-141785] | 0.724 µM | – | 3 | – | – | – | – | – | – | – | 3520 nM | 1.13 µM | – |
